Measurements from patent publication US11584727B2, “2-thioxothiazolidin-4-one derivatives active as transthyretin ligands and uses thereof” (BSIM Therapeutics, S.A., priority 2014, dated 2023).

Experiments:
transthyretin (TTR) = molecular target: T1, transthyretin (TTR) (Homo sapiens, UniProt P02766); test: Thyroxine (T4) binding competition by gel electrophoresis in plasma, TTR band; conditions: for T4 bound to TTR: human plasma, [125I]T4, in presence of compound
T1 construct: from tissue; host or cells: human plasma
Protocol: Briefly, upon incubation of human plasma in the presence of the test compounds and radio-labeled T4 ([125I]T4), the samples are subjected to native PAGE. After electrophoresis, the gels are dried, subjected to phosphor imaging, and the intensity of the protein bands is then compared. […] The intensity of the bands decreases, as compared to the control samples (absence of compound), if the compound binds to the protein(s) competing with T4.
FIG. 24 presents the results of these experiments, where the bands in the gel correspond to the major T4 binding plasma proteins. The intensity of the bands decreases, as compared to the control samples (absence of compound), if the compound binds to the protein(s) competing with T4. The results were analyzed by calculation of the TTR/total (TTR+ALB+TBG) ratio for each sample collected at different time points. The displacement of T4 from TTR is calculated and plotted as the difference between the average of ratios of TTR/total protein for each control sample and the average of the ratios of TTR/total protein.
The assay for the binding to TTR through competition with T4 is performed by T4 binding gel electrophoresis as previously described in reference.
Five (5) μL of human plasma plus 0.25-0.5 μL of [125I]T4 (specific radioactivity 1250 μCi/m; concentration 320 μCi/mL; Perkin Elmer, Boston, Mass., U.S.A.) plus 5 μL of PBS with glycerol 50% are incubated for 1 hour at room temperature (RT) and the samples are subjected to native PAGE. After electrophoresis, the gels are dried, subjected to phosphor imaging (Typhoon 8600; Molecular Diagnostics, Amersham Biosciences), and analyzed using the ImageQuant program version 5.1. The intensity of the protein bands is compared. […]
The results are analyzed by calculation of the TTR/total (TTR+ALB+TBG) ratio for each sample collected at different time points. The displacement of T4 from TTR is calculated as the difference between the average of ratios of TTR/total protein for each control sample and the average of the ratios of TTR/total protein.

human plasma TTR = molecular target: T2, human plasma TTR (Homo sapiens, UniProt P02766); test: Tetrameric TTR stability by isoelectric focusing (IEF) of plasma TTR, ex vivo; assay type: biochemical; conditions: human plasma incubated with compound; control (vehicle) 0.717
T2 construct: from tissue; host or cells: human plasma
Protocol: To perform the assay, 30 μL of human plasma are incubated with 5 μL of a 10 mM solution of test compounds and control compounds overnight at 4° C. followed by a 1 hour incubation at room temperature. The preparations are subjected to native PAGE. The gel band containing TTR is then excised and applied to an IEF gel and IEF is carried out in semi-denaturing conditions. Proteins are stained with Coomassie Blue, the gels are scanned and subjected to densitometry. The results are expressed as the ratio of TTR tetramer over the total TTR species present, reflecting TTR stability.
After treatment with the test compounds, TTR was separated by PAGE and the isolated protein was analyzed by IEF.
To perform the assay, 30 μL of human plasma are incubated with 5 μL of a 10 mM solution of test compounds and control compounds overnight at 4° C. followed by a 1 hour incubation at RT. The preparations are subjected to native PAGE and the gel band containing TTR is excised and applied to an IEF gel. IEF is carried out in semi-denaturing conditions (4 M urea), containing 5% (v/v) ampholytes pH 4-6.5 (GE Healthcare), at 1200 V for 6 hours. Proteins are stained with Coomassie Blue, the gels are scanned and subjected to densitometry using the ImageQuant program. The results are expressed as the ratio of TTR tetramer over total TTR.

FAP patients = conditions: 18-month phase-III clinical trial; cited from earlier work

competition with T4 (in words) (transthyretin (TTR); T4 competition and gel electrophoresis) | T4 bound to TTR (transthyretin (TTR)) [%] | tetramer/monomer ratio (IEF densitometry) (human plasma TTR) | Compound | FAP patients with improvement of symptoms (FAP patients)
competes with T4 | 14.2 | 0.838 | COc1cc(/C=C2\SC(=S)N(CC(=O)O)C2=O)cc(Cl)c1O [AT50-A00 (Z), (Z)-3-hydroxycarbonylmethyl-5-(3′-chloro-4′-hydroxy-5′-methoxyphenylmethylidene)-2-thioxothiazolidin-4-one] | 
 | 14.4 |  | O=C(O)c1ccc2nc(-c3cc(Cl)cc(Cl)c3)oc2c1 [Tafamidis, reference compound] | approximately 60%
